Publication PMC3600304, “Inhibitors of Fatty Acid Synthesis Induce PPARα-Regulated Fatty Acid β-Oxidative Genes: Synergistic Roles of L-FABP and Glucose” (PPAR Research, 2013)

What was measured:
[1] = target: T1, recombinant rat L-FABP (Rattus norvegicus, UniProt P02692); test: L-FABP secondary structure by circular dichroism (CD); settings: L-FABP 1 μM, ligand 10 μM
T1 construct: made in house
T1 sequence (P02692 1-127): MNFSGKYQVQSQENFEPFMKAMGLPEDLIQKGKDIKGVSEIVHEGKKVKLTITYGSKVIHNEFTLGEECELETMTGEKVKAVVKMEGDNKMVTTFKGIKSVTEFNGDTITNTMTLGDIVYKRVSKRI
Method: Circular dichroism (CD) spectra were obtained utilizing a JASCO J-815 CD spectrometer (JASCO Analytical Instruments, Easton, MD, USA). Each sample for CD analysis contained recombinant rat L-FABP (1 μM) in 10 mM potassium phosphate (pH 7.4) with or without ligand (10 μM). Samples were scanned from 190 to 250 nm using the following conditions: step resolution, 1 nm; bandwidth, 2 nm; sensitivity, 10 mdeg; scan rate, 50 nm/min; and time constant, 1 s. For each measurement, 10 scans were averaged, background-subtracted, smoothed using the Means-Movement smoothing method (convolution width, 5) and converted to mean residue molar ellipticity utilizing the Spectra Manager Version 2 software as supplied by the instrument manufacturer (Spectra Analysis Version 2.03.04, Build 5). The percentage composition of α-helices (regular, distorted, total), β-sheets (regular, distorted, total), turns, and unordered structures was determined utilizing the CDPro program as supplied by the instrument manufacturer using the SDP48 reference set (soluble + denatured protein). This program allows the percentage calculation of various secondary structures by three different methods: CDSSTR, CONTIN, and SELCON3. Statistical analysis was performed by one-way analysis of variance (ANOVA) combined with the Newman-Keuls multiple-comparisons posttest (GraphPad Prism Version 3.03, San Diego, CA, USA).

[2] = system: mouse primary hepatocytes; test: Hepatocyte unesterified (free) LCFA determination; type: cell-based; settings: normal physiological glucose (6 mM), inhibitor 10 μg/mL
Method: (§1) Mouse hepatocytes were isolated from livers of male wild-type and L-FABP null mice as described. To study the effect of TOFA and C75 at different glucose levels, mouse hepatocytes were cultured overnight with DMEM/F-12 supplemented with 5% FBS. Cells were incubated with glucose-free DMEM supplemented with fatty acid-free BSA (40 μM), 100 nM insulin, 10 nM dexamethasone, and without (no inhibitor) or with the de novo fatty acid synthesis inhibitors C75 or TOFA (10 μg/mL) for 30 min (1 mL/well). Cells were incubated further for 5 hr with 6 or 20 mM glucose without or with the inhibitors.
Cultured mouse hepatocytes were plated 4 × 10^5 cells per well in 12-well tissue culture plates. After incubation with TOFA or C75 at different glucose levels as described previously, hepatocytes were washed with cold PBS 4x, scraped with cold PBS (with protease inhibitor), and homogenized with a probe sonicator (Sonic Dismembrator 550, Fisher Scientific, Waltham, MA, USA). A 20 μL sample was saved for protein analysis using the Bio-Rad protein assay reagent, (Bio-Rad, Hercules, CA, USA). […]
The LCFA content of each sample was measured with the Free Fatty Acid Quantification Kit from BioVision, Inc. (Mountain View, California, USA) according to manufacturer's instructions, using a standard of palmitic acid included in the kit. […]

[3] = target: T2, L-FABP (Rattus norvegicus, UniProt P02692); test: Displacement of L-FABP-bound NBD-stearic acid; type: binding
T2 construct: made in house
T2 sequence (P02692 1-127): T1 sequence (P02692 1-127)
Method: Advantage was taken of the fact that NBD-stearic acid bound to L-FABP (two ligand binding sites) as well as SCP-2 (single-ligand binding site) to design a NBD-stearic acid displacement assay that allowed determination of which fatty acid synthesis inhibitors or their CoA thioesters bound to these LCFA/LCFA-CoA binding proteins. Displacement of NBD-stearate from L-FABP and SCP-2 was determined by incubating L-FABP or SCP-2 (25 nM in 10 mM phosphate buffer) with NBD stearate (40 nM) for 12 min to obtain maximal fluorescence, followed by titration with increasing amount of ligand. From the displacement curve, the K i value was calculated as described. All experiments were carried out with a thermostated cuvette to maintain temperature at 24°C using a circulating water bath. ANS displacement assay was performed as described.

[4] = system: mouse primary hepatocytes; test: Hepatocyte cytosolic glucose level; type: cell-based; settings: for Cytosolic glucose / Fold increase of cytosolic glucose versus no inhibitor: inhibitor 10 μg/mL; for Fold increase of cytosolic glucose by inhibitor: high extracellular glucose (20 mM); for Fold increase of cytosolic glucose with increasing glucose from 6 to 20 mM: in the presence of inhibitor 10 μg/mL
Method: as §1
Hepatocytes were plated 2 × 10^5 per well in 12-well tissue culture plates (Becton Dickinson and Company, Franklin Lakes, NJ, USA). After incubation with culture medium containing TOFA or C75 with increasing glucose level as described previously, hepatocytes were washed quickly with a cold solution of MgCl2 (100 mM) with 0.1 mM phloretin [46]. Cells were scraped from the dishes with PBS plus protease inhibitor, and cells were broken open with a probe sonicator (Sonic Dismembrator 550, Fisher Scientific, Waltham, MA, USA). Samples were sedimented at 10,000 g, 4°C for 20 min. The supernatant was used for glucose analysis with the Amplite Glucose Quantitation Kit (AAT Bioquest, Inc. Sunnyvale, CA, USA) as instructed by the manufacturer. The number of cultured primary hepatocytes in each sample was calculated based on amount of protein (Bradford Assay, Sigma, St. Louis, MO, USA) compared with reference samples with a known number of hepatocytes. Cytosolic glucose concentration was calculated using 7.4 × 10^−12 liter/cell as volume of the hepatocytes.

Effect on L-FABP secondary structure (overall) [1]	Displacement of NBD-stearic acid bound to L-FABP (in words) [3]	Effect on proportion of all types of β-sheet of L-FABP [1]	Effect on proportion of α-helix of L-FABP [1]	Effect on turn structure of L-FABP [1]	Effect on unordered structure of L-FABP [1]	Ki ([3]; L-FABP 25 nM, NBD stearate 40 nM, 24°C, read-out: K i, displacing L-FABP-bound NBD-stearic acid) [nM]	Fluorescence of L-FABP-bound NBD-stearic acid decreasing to ([3]; at 650 nM TOFA) [%]	Compound	Unesterified fatty acid level [2]	Cytosolic glucose ([4]; 6 mM glucose in medium) [mM]	Fold increase of cytosolic glucose versus no inhibitor ([4]; 6 mM glucose in medium)	Cytosolic glucose ([4]; 20 mM glucose in medium) [mM]	Fold increase of cytosolic glucose by inhibitor [4] [fold]	Fold increase of cytosolic glucose with increasing glucose from 6 to 20 mM [4] [fold]
did not alter	weaker							C=C1C(=O)OC(CCCCCCCC)C1C(=O)O (stereo not drawn) [C75, 4-methylene-2-octyl-5-oxotetrahydrofuran-3-carboxylic acid]	Neither TOFA nor C75 significantly impacted	4	~ 2 fold	13	~2	~4
significantly altered		increased	did not alter	decreased	did not alter	66 ± 3	40	CCCCCCCCCCCCCCOc1ccc(C(=O)O)o1 [TOFA, 5-tetradecyloxy-2-furancarboxylic acid]	Neither TOFA nor C75 significantly impacted	4	~ 2 fold	20	~2	~5
